# Key:
# mouse [1] = conditions: Multigenerational reproductive toxicity study, cd1, Oral, Feed, dose end: 2 generation
# mouse [2] = conditions: Carcinogenicity, b6c3f1, Oral, Feed, dose end: 2 year, group: systemic
# mouse [3] = conditions: Subchronic oral toxicity in rodents, b6c3f1, Feed, dose end: 13 week, group: systemic
# rat [4] = conditions: Subchronic oral toxicity in rodents, fischer, Feed, dose end: 13 week, group: systemic
# rat [5] = conditions: Carcinogenicity, fischer, Oral, Feed, dose end: 2 year, group: systemic, systemic / in life observation / clinical signs / urine
# mouse [6] = conditions: Subchronic oral toxicity in rodents, cd1, Feed, dose end: 14 week, group: systemic
# rat [7] = conditions: Chronic toxicity; sprague dawley; Oral; Gavage/Intubation; dose end: 6 month; group: systemic; systemic / clinical chemistry / creatinine / creatinine
# dog [8] = conditions: Subchronic oral toxicity in nonrodent, beagle, Gavage/Intubation, dose end: 6 month, group: systemic
# rat [9] = conditions: Subchronic oral toxicity in rodents, sprague dawley, Feed, dose end: 13 week, group: systemic
# dog [10] = conditions: Chronic toxicity, beagle, Oral, Gavage/Intubation, dose end: 52 week, group: systemic
# rat [11] = conditions: Subchronic oral toxicity in rodents, wistar, Gavage/Intubation, dose end: 13 week, group: systemic
# dog [12] = conditions: Subchronic oral toxicity in nonrodent, beagle, Gavage/Intubation, dose end: 13 week, group: systemic
# dog [13] = conditions: Subchronic oral toxicity in nonrodent, beagle, Capsule, dose end: 13 week, group: systemic, systemic / clinical chemistry / albumin / albumin + systemic / clinical chemistry / protein / protein + systemic / in life observation / …
# rat [14] = conditions: Chronic toxicity, other, Oral, Feed, dose end: 102 week, group: systemic
# rat [15] = conditions: Subchronic oral toxicity in rodents, wistar, Feed, dose end: 13 week, group: systemic, systemic / organ weight / spleen / absolute + systemic / organ weight / spleen / relative to body weight + systemic / pathology microscopic…
# dog [16] = conditions: Chronic toxicity; beagle; Oral; Feed; dose end: 104 week; group: systemic; systemic / clinical chemistry / [other] / [other] + systemic / pathology microscopic / liver / pigmentation + systemic / pathology …
# rat [17] = conditions: Acute dermal toxicity, other, Topical, dose end: 28 day, group: systemic, systemic / pathology microscopic / thymus / necrosis
# mouse [18] = conditions: Carcinogenicity, cd1, Oral, Feed, dose end: 80 week, group: systemic
# rat [19] = conditions: Subchronic oral toxicity in rodents, sprague dawley, Gavage/Intubation, dose end: 13 week, group: systemic
# rat [20] = conditions: Sub-acute repeat dose toxicity; sprague dawley; Oral; Gavage/Intubation; dose end: 6 week; group: systemic; systemic / organ weight / liver / absolute + systemic / organ weight / liver / relative to body weight + systemic / pathology microscopic / …
# mouse [21] = conditions: Subchronic oral toxicity in rodents, cd1, Gavage/Intubation, dose end: 13 week, group: systemic
# primate = conditions: Subchronic oral toxicity in nonrodent, macaque, Gavage/Intubation, dose end: 7 week, group: systemic, systemic / clinical chemistry / alkaline phosphatase (alp/alk) / alkaline phosphatase (alp/alk) + systemic / organ weight / liver / absolute…
# rat [22] = conditions: Subchronic oral toxicity in rodents, sprague dawley, Feed, dose end: 90 day, group: systemic, systemic / pathology microscopic / kidney / basophilia + systemic / pathology microscopic / kidney / dilatation + systemic / pathology …
# dog [23] = conditions: Subchronic oral toxicity in nonrodent, beagle, Feed, dose end: 13 week, group: systemic, systemic / in life observation / body weight / body weight + systemic / in life observation / body weight / body weight gain + systemic / …
# rat [24] = conditions: Prenatal developmental toxicity study, sprague dawley, Oral, Gavage/Intubation, dose end: 15 GD
# rat [25] = conditions: Combined chronic toxicity/carcinogenicity, sprague dawley, Oral, Feed, dose end: 2 year, group: systemic
# [26] = group: offspring, systemic / in life observation / body weight / offspring (pup) weight
# [27] = group: parental, systemic / in life observation / food consumption / food consumption
# [28] = group: reproductive, reproductive / offspring survival early / live fetuses / live fetuses + reproductive / reproductive performance / fertility / fertility
# [29] = systemic / in life observation / body weight / body weight + systemic / pathology microscopic / epididymis / atypia cellular + systemic / …
# [30] = systemic / in life observation / clinical signs / urine, discoloration + systemic / pathology microscopic / adrenal gland / hyperplasia + …
# [31] = systemic / in life observation / clinical signs / urine, discoloration
# [32] = discoloration + systemic / pathology microscopic / kidney / adenoma + systemic / …
# [33] = systemic / clinical chemistry / creatinine / creatinine
# [34] = systemic / clinical chemistry / creatinine / creatinine + systemic / hematology / hematocrit (hct) / hematocrit (hct) + systemic / …
# [35] = systemic / organ weight / adrenal gland / relative to body weight + systemic / organ weight / heart / absolute + systemic / clinical …
# [36] = systemic / clinical chemistry / creatinine / creatinine + systemic / hematology / reticulocyte / reticulocyte + systemic / organ weight / …
# [37] = systemic / organ weight / heart / absolute
# [38] = systemic / organ weight / heart / absolute + systemic / clinical chemistry / alkaline phosphatase (alp/alk) / alkaline phosphatase (alp/alk…
# [39] = systemic / clinical chemistry / albumin / albumin + systemic / clinical chemistry / chloride / chloride + systemic / clinical chemistry / …
# [40] = systemic / clinical chemistry / albumin / albumin + systemic / clinical chemistry / protein / protein + systemic / in life observation / …
# [41] = systemic / clinical chemistry / alanine aminotransferase (alt/sgpt) / alanine aminotransferase (alt/sgpt) + systemic / in life observation…
# [42] = systemic / organ weight / adrenal gland / absolute
# [43] = systemic / clinical chemistry / [other] / [other]
# [44] = systemic / clinical chemistry / [other] / [other] + systemic / pathology microscopic / intestine small / pigmentation + systemic / pathology…
# [45] = systemic / pathology microscopic / stomach / ulcer + systemic / hematology / anemia / anemia - nos + systemic / hematology / hematocrit (hct…
# [46] = systemic / clinical chemistry / [other] / [other] + systemic / clinical chemistry / alanine aminotransferase (alt/sgpt) / alanine …
# [47] = systemic / hematology / mean corpuscular (cell) volume (mcv) / mean corpuscular (cell) volume (mcv) + systemic / hematology / mean …
# [48] = systemic / clinical chemistry / albumin / albumin + systemic / clinical chemistry / protein / protein + systemic / hematology / platelet / …
# [49] = systemic / pathology microscopic / adrenal gland / vacuolization + systemic / pathology microscopic / liver / eosinophilic focus + systemic…
# [50] = group: developmental, developmental / developmental malformation / bone / incomplete ossification + developmental / developmental malformation / interparietal / …
# [51] = group: maternal, systemic / in life observation / food consumption / food consumption + systemic / pathology gross / kidney / enlarged
# [52] = systemic / pathology microscopic / kidney / dilatation + systemic / pathology microscopic / kidney / fibrosis + systemic / clinical …
smiles,measurement,setting,value
O=C1CN(/N=C/c2ccc([N+](=O)[O-])o2)C(=O)N1 [Nitrofurantoin],LEL,mouse [1]; [26],99.2 mg/kg/day
same,LOAEL,mouse [1]; [26],> 213 mg/kg/day
same,NEL,mouse [1]; [26],43.8 mg/kg/day
same,NOAEL,mouse [1]; [26],≥ 213 mg/kg/day
same,LEL,mouse [1]; [27],164 mg/kg/day
same,LOAEL,mouse [1]; [27],> 164 mg/kg/day
same,NEL,mouse [1]; [27],88.7 mg/kg/day
same,NOAEL,mouse [1]; [27],≥ 164 mg/kg/day
same,LEL,mouse [1]; [28],213 mg/kg/day
same,LOAEL,mouse [1]; [28],> 213 mg/kg/day
same,NEL,mouse [1]; [28],99.2 mg/kg/day
same,NOAEL,mouse [1]; [28],≥ 213 mg/kg/day
same,LOAEL,mouse [2]; [29],570 mg/kg/day
same,NOAEL,mouse [2]; [29],300 mg/kg/day
same,LEL,mouse [2]; [30],280 mg/kg/day
same,NEL,mouse [2]; [30],< 280 mg/kg/day
same,NOAEL,mouse [3]; systemic / in life observation / body weight / body weight + systemic / pathology microscopic / ovary / necrosis + systemic / in life …,375 mg/kg/day
same,LOAEL,mouse [3]; systemic / in life observation / body weight / body weight + systemic / pathology microscopic / ovary / necrosis + systemic / pathology …,750 mg/kg/day
same,LEL,mouse [3]; systemic / pathology microscopic / testes / aspermatogenesis + systemic / pathology microscopic / testes / degeneration,195 mg/kg/day
same,NEL,mouse [3]; systemic / pathology microscopic / testes / aspermatogenesis + systemic / pathology microscopic / testes / degeneration + systemic / in life…,90 mg/kg/day
same,NOAEL,"rat [4]; systemic / in life observation / body weight / body weight + systemic / in life observation / clinical signs / urine, discoloration + …",65 mg/kg/day
same,LOAEL,rat [4]; systemic / in life observation / body weight / body weight + systemic / pathology microscopic / testes / degeneration,125 mg/kg/day
same,LEL,rat [4]; [31],30 mg/kg/day
same,NEL,rat [4]; [31],< 30 mg/kg/day
same,LEL,rat [5]; discoloration,30 mg/kg/day
same,NEL,rat [5]; discoloration,< 30 mg/kg/day
same,LOAEL,rat [5]; [32],> 60 mg/kg/day
same,NOAEL,rat [5]; [32],≥ 60 mg/kg/day
CC(=O)c1ccc2c(c1)[C@H](NC(=O)c1ccc(F)cc1)[C@@H](O)C(C)(C)O2 [Carabersat],LEL,mouse [6]; [33],200 mg/kg/day
same,LOAEL,mouse [6]; [34],> 2000 mg/kg/day
same,NEL,mouse [6]; [34],20 mg/kg/day
same,NOAEL,mouse [6]; [34],≥ 2000 mg/kg/day
same,LEL,rat [7],200 mg/kg/day
same,LOAEL,rat [7],> 2000 mg/kg/day
same,NEL,rat [7],20 mg/kg/day
same,NOAEL,rat [7],≥ 2000 mg/kg/day
same,LEL,dog [8]; systemic / organ weight / adrenal gland / relative to body weight + systemic / clinical chemistry / alkaline phosphatase (alp/alk) / …,200 mg/kg/day
same,NEL,dog [8]; systemic / organ weight / adrenal gland / relative to body weight + systemic / organ weight / heart / absolute,20 mg/kg/day
same,LOAEL,dog [8]; [35],> 1000 mg/kg/day
same,NOAEL,dog [8]; [35],≥ 1000 mg/kg/day
same,LEL,rat [9]; [33],20 mg/kg/day
same,NEL,rat [9]; [33],< 20 mg/kg/day
same,LOAEL,rat [9]; [36],> 2000 mg/kg/day
same,NOAEL,rat [9]; [36],≥ 2000 mg/kg/day
same,LEL,dog [10]; [37],20 mg/kg/day
same,NEL,dog [10]; [37],< 20 mg/kg/day
same,LOAEL,dog [10]; [38],> 1000 mg/kg/day
same,NOAEL,dog [10]; [38],≥ 1000 mg/kg/day
CCN(C(=O)c1cc(C)cc(OC[C@H](C)Nc2ccncc2)c1)C(C)C.Cc1ccc(S(=O)(=O)O)cc1,LOAEL,rat [11]; [39],> 40 mg/kg/day
same,NOAEL,rat [11]; [39],≥ 40 mg/kg/day
same,LEL,rat [11]; [40],12 mg/kg/day
same,NEL,rat [11]; [40],< 12 mg/kg/day
same,LOAEL,dog [12]; [41],> 20 mg/kg/day
same,NOAEL,dog [12]; [41],≥ 20 mg/kg/day
same,LEL,dog [12]; [42],4 mg/kg/day
same,NEL,dog [12]; [42],< 4 mg/kg/day
Oc1cccc2cccnc12.Oc1cccc2cccnc12.[Cu] [Copper-8-hydroxyquinoline (1:2)],LEL,dog [13],50 mg/kg/day
same,LOAEL,dog [13],50 mg/kg/day
same,NEL,dog [13],5 mg/kg/day
same,NOAEL,dog [13],5 mg/kg/day
same,LEL,rat [14]; [43],0.25 mg/kg/day
same,NEL,rat [14]; [43],< 0.25 mg/kg/day
same,LOAEL,rat [14]; [44],100 mg/kg/day
same,NOAEL,rat [14]; [44],25 mg/kg/day
same,LEL,rat [15],100 mg/kg/day
same,LOAEL,rat [15],100 mg/kg/day
same,NEL,rat [15],30 mg/kg/day
same,NOAEL,rat [15],30 mg/kg/day
same,LEL,dog [16],25 mg/kg/day
same,LOAEL,dog [16],25 mg/kg/day
same,NEL,dog [16],5 mg/kg/day
same,NOAEL,dog [16],5 mg/kg/day
same,LEL,rat [17],1000 mg/kg/day
same,LOAEL,rat [17],1000 mg/kg/day
same,NEL,rat [17],200 mg/kg/day
same,NOAEL,rat [17],200 mg/kg/day
same,LOAEL,mouse [18]; systemic / pathology microscopic / stomach / ulcer,208 mg/kg/day
same,NEL,mouse [18]; [45],57.1 mg/kg/day
same,NOAEL,mouse [18]; [45],57.1 mg/kg/day
same,LEL,mouse [18]; systemic / pathology microscopic / stomach / ulcer + systemic / pathology microscopic / spleen / hematopoietic cell proliferation,208 mg/kg/day
CCc1cc(SCc2sc(-c3ccc(C(F)(F)F)cc3)nc2CN2CCN(c3ccc(OC)cc3)CC2)ccc1OCC(=O)O,LOAEL,rat [19]; [46],> 1000 mg/kg/day
same,NOAEL,rat [19]; [46],≥ 1000 mg/kg/day
same,LEL,rat [19]; [47],30 mg/kg/day
same,NEL,rat [19]; [47],< 30 mg/kg/day
same,LEL,rat [20],5 mg/kg/day
same,LOAEL,rat [20],> 100 mg/kg/day
same,NEL,rat [20],< 5 mg/kg/day
same,NOAEL,rat [20],≥ 100 mg/kg/day
same,LOAEL,mouse [21]; [48],> 1000 mg/kg/day
same,NOAEL,mouse [21]; [48],≥ 1000 mg/kg/day
same,LEL,mouse [21]; [49],10 mg/kg/day
same,NEL,mouse [21]; [49],< 10 mg/kg/day
same,LEL,primate,5 mg/kg/day
same,LOAEL,primate,> 100 mg/kg/day
same,NEL,primate,< 5 mg/kg/day
same,NOAEL,primate,≥ 100 mg/kg/day
CCNc1nc(NC(C)C)[nH]c(=O)n1 [2-Hydroxyatrazine],LEL,rat [22],18.9 mg/kg/day
same,LOAEL,rat [22],18.9 mg/kg/day
same,NEL,rat [22],6.3 mg/kg/day
same,NOAEL,rat [22],6.3 mg/kg/day
same,LEL,dog [23],59.6 mg/kg/day
same,LOAEL,dog [23],59.6 mg/kg/day
same,NEL,dog [23],5.8 mg/kg/day
same,NOAEL,dog [23],5.8 mg/kg/day
same,LEL,rat [24]; [50],125 mg/kg/day
same,LOAEL,rat [24]; [50],125 mg/kg/day
same,NEL,rat [24]; [50],25 mg/kg/day
same,NOAEL,rat [24]; [50],25 mg/kg/day
same,LOAEL,"rat [24]; group: maternal, systemic / in life observation / food consumption / food consumption",125 mg/kg/day
same,LEL,rat [24]; [51],125 mg/kg/day
same,NEL,rat [24]; [51],25 mg/kg/day
same,NOAEL,rat [24]; [51],25 mg/kg/day
same,LOAEL,rat [25]; systemic / pathology microscopic / kidney / dilatation + systemic / pathology microscopic / kidney / fibrosis,7.75 mg/kg/day
same,NEL,rat [25]; [52],0.962 mg/kg/day
same,NOAEL,rat [25]; [52],0.962 mg/kg/day
same,LEL,rat [25]; systemic / pathology microscopic / kidney / dilatation + systemic / pathology microscopic / kidney / fibrosis + systemic / pathology gross…,7.75 mg/kg/day
